Reference: patent US4425352A, “Substituted phenoxyacetates of cyclic amines” (Agence Nationale de Valorisation de la Recherche, priority 1980, dated 1984)
Where “and” joins values, the source holds several entries; their conditions need not be identical. Equal entries are not always repeated.

How the values were obtained:
fish chromatophores = assay: Action on the fish chromatophores (time of blackening); assay type: in vivo, Phoxinus Phoxinus Linne; conditions: at minimum effectual concentration
Experimental: The physiology of fish chromatophores is dependent on hypothalamic secretions of the lower portion of the diencephalon. The psychotropic and cerebral-orientation drugs can modify the physiology of these regions [J. Thuillier et al. C.R. Soc. […] This test is known to evidence the action of the products on the diencephalon which controls distension and blackening of fish chromatophores. […] The time for the fish blackening to occur was measured. The same test was effected with Meclofexonate.

blood platelet clotting = assay: Effect against blood platelet clotting (pia-mater vessels); assay type: in vivo, rabbits; conditions: dose not stated
Experimental: All the products of the invention prepared according to Examples 1 and 2 at a dose of 10 mg/kg have an effect against plaquette aggregation which was observed on the pia-mater vessels of rabbits [M. M. G. BOZEIX 7th. Int. Congress of Pharmacology, Paris, July 1978].

genetically obese mice [1] = assay: Action on genetically obese mice; assay type: in vivo; design: Alimentary consumption: unit not given here; conditions: for Weight: in g
[2] = tested on: mice intoxicated with aurothioglucose; assay: Protective effect against the action of aurothioglucose (hyperphagia, stomach weight, weight gain); assay type: in vivo; design: Decrease in the stomach weight with respect to the aurothioglucose reference: unit not given here; conditions: for Weight increase: 15 days after beginning, aurothioglucose alone 49%; for Action against hyperphagia and weight gain of mice intoxicated with aurothioglucose: given 1/2 hour before aurothioglucose 250 mg/kg
Experimental: Hunger and thirst regulation is dependent on stimulating secretions from the hypothalamus. These regulator centers may be disturbed either in acquired manner in genetically obese animals, either consequently to the destruction of the involved centers by selective poisons, such as aurothioglucose.
If 250 mg/kg of aurothioglucose are injected to mice, then the cells of the hypothalamic nuclei will degenerate and cause an hyperphagia syndrome in animals which is evidenced by:
a distension of the stomach,
a considerable increase in ponderal growing.
The mice were treated with one of the products of the invention 1/2 hour before the intraperitoneal injection of aurothioglucose (250 mg/kg).

[3] = tested on: mice rendered obese by aurothioglucose; assay: Curative action after development of obesity under the action of aurothioglucose; assay type: in vivo; conditions: for Decrease in weight/Aurothioglucose references: 18 days, per os; for Activity compared with Meclofenoxate at 200 mg/kg: in words
Experimental: Mice were rendered obese by intra-peritoneal injections of aurothioglucose (800 mg/kg).
After the development of obesity, a plateau was obtained in the weight curve. There was then selected an homogenous group of mice and treatment with PM 170 and Meclofenoxate was initiated. The results obtained were compared with a group of reference mice treated only with aurothioglucose (ATG controls).

genetically obese mice [4] = assay: Action on genetically obese mice; assay type: in vivo; conditions: for Decrease in weight: obese mice, gastric ingestion, 18 days
Experimental: Finally, gastric ingestion during 18 days of 200 mg/kg of PM 170 causes, in obese mice, a steady decrease in weight of 8.3%, while in the same conditions there occurs, with Meclofenoxate, a decrease in weight of 2.2%.

Diuretic action = assay type: in vivo
rats = assay: Orientation test after an electroshock; assay type: in vivo
Excerpt: This test consists in causing a loss of orientation and motive disorders in rats after repetition of 4 series of electroshock [M. Herold: Acta. Int. Meet. Psycho. Drug.

mice = assay: Acute toxicity (LD 50) per os and intraveinous, Litchfield and Wilcoxon method; assay type: in vivo; conditions: for LD 50 I.V.: intraveinous; for LD 50 P.O.: per os
Experimental: The toxicities were calculated according to the LITCHFIELD and WILCOXON method (J. Pharm. and Exp. Therap. 1949, 96, p. 99, 113).
The products were administered per os and per intraveinous route to mice.

cerebral oedema of rats = assay: Actions on cerebral oedema caused by triethyltin chloride; assay type: in vivo; conditions: 50 mg per kilogram
Experimental: The alkylated tin compounds are toxic and cause selective oedema of the central nervous system and in particular of the brain (Works of R. KATZMAN et al. Arch. Neurol. 9, 178, 1963). The water content of the cerebral tissue is increased. Similarly, the cerebral sodium content increases, while the potassium is reduced.
100 mg per kg of Meclofenoxate are required to provide the same result.

central nervous system = assay: Actions on the central nervous system (overall statement); assay type: in vivo; conditions: versus Meclofenoxate

| Compound | Time of occurrence of the blackening (fish chromatophores) | Weight increase [2] | Decrease in aliment consumption/ATG references ([3]; 50 mg/kg) | Decrease in weight/Aurothioglucose references ([3]; 50 mg/kg per day) | Decrease in aliment consumption/ATG references ([3]; 100 mg/kg) | Decrease in weight/Aurothioglucose references ([3]; 100 mg/kg per day) | Decrease in aliment consumption/ATG references ([3]; 200 mg/kg) | Decrease in weight/Aurothioglucose references ([3]; 200 mg/kg per day) | Decrease in weight (genetically obese mice [4]; 200 mg/kg) | LD 50 I.V. (mice) | LD 50 P.O. (mice) | Decrease in the stomach weight with respect to the aurothioglucose reference ([2]; 100 mg/kg P.O) | Action against hyperphagia and weight gain of mice intoxicated with aurothioglucose [2] | Effect on the build up of Na+ (cerebral oedema of rats) | Effect on the loss of K+ (cerebral oedema of rats) | Occurrence of the oedema caused by triethyltin chloride (cerebral oedema of rats) | further results |
| --- | --- | --- | --- | --- | --- | --- | --- | --- | --- | --- | --- | --- | --- | --- | --- | --- | --- |
| CN(C)CCOC(=O)COc1ccc(Cl)cc1 [Meclofenoxate, dimethylaminoethyl 4-chlorophenoxyacetate, reference compound] | 90 s | 45% | inactive | inactive | 26% | 10% | 23% and 22.9% | 5% | 2.2% | 350 mg | 1750 mg | – | – | – | – | – | Effect against blood platelet clotting (blood platelet clotting): no effect against blood platelet clotting; Alimentary consumption (genetically obese mice [1]; treated normal females, 300 mg/kg, normal female controls 6.703 ± 0.597): 5.842 ± 0.842; Weight (genetically obese mice [1]; treated normal females, 300 mg/kg, normal female controls 25.3 ± 0.504): 24.8 ± 0.602; Alimentary consumption (genetically obese mice [1]; treated obese females, 300 mg/kg, obese female controls 6.347 ± 0.637): 5.542 ± 0.302; Weight (genetically obese mice [1]; treated obese females, 300 mg/kg, obese female controls 42.5 ± 0.787): 41.2 ± 0.802; Decrease in the stomach weight with respect to the aurothioglucose reference ([2]; 250 mg/kg P.O): 2.2495; Decrease in the stomach weight with respect to the aurothioglucose reference ([2]; 300 mg/kg P.O): 1.6129; minimal effective dose ([2]; Mus musculus, stomach weight, Table IV, read-out: Dosage at which (only) active): 250 mg/kg; Times less active than PM 170 ([2]; stomach weight, versus PM 170): 12.4 times; Activity to counteract obesity caused by aurothioglucose ([2]; versus PM 170, in words): less active than PM 170; Diuretic action (Diuretic action; dose not stated): no effect against blood platelet clotting nor diuretic action; Efficacy in orientation test after electroshock (rats; up to 200 mg/kg): absolutely inefficient |
| CCN1CCCC(OC(=O)COc2ccc(Cl)cc2)C1 (centres unmarked) [PM 168, N-ethyl-3-piperidine 4-chloro-phenoxyacetate] | 30 s | – | – | – | – | – | – | – | – | 140 mg | 1800 mg | 2.5510 | counteract both hyperphagia and the weight gain | limit the build up of Na^+ | counteract the loss of K^+ | considerably reduce the occurrence of the oedema | Decrease in the stomach weight with respect to the aurothioglucose reference ([2]; 150 mg/kg P.O): 3.37 |
| CN1CCCC(COC(=O)COc2ccc(Cl)cc2)C1 (centres unmarked) [PM 170, N-methyl-3-hydroxymethyl-piperidine (4-chloro-phenoxyacetate)] | 90 s | 34% | 10% | 5% | 33% | 12% | 36% | 14% | 8.3% | 175 mg | 2300 mg | 4.2287 | counteract both hyperphagia and the weight gain | limit the build up of Na^+ | counteract the loss of K^+ | considerably reduce the occurrence of the oedema | Alimentary consumption (genetically obese mice [1]; treated normal males, 200 mg/kg, normal male controls 6.307 ± 0.746): 4.716 ± 0.880; Weight (genetically obese mice [1]; treated normal males, 200 mg/kg, normal male controls 25.34 ± 0.365): 22.22 ± 0.484; Alimentary consumption (genetically obese mice [1]; treated obese males, 200 mg/kg, obese male controls 6.786 ± 0.853): 4.384 ± 0.886; Activity on the central nervous system relative to Meclofenoxate (central nervous system): from five to twelve times more active than Meclofenoxate; Decrease in the stomach weight with respect to the aurothioglucose reference ([2]; 20 mg/kg P.O): 3.2155; Decrease in the stomach weight with respect to the aurothioglucose reference ([2]; 50 mg/kg P.O): 2.8729; Activity against increase of the stomach weight distension ([2]; in words): very high activity; Activity compared with Meclofenoxate at 200 mg/kg ([3]; 50 mg/kg): same activity at 50 mg/kg than Meclofenoxate at 200 mg/kg; Activity compared with Meclofenoxate at 200 mg/kg ([3]; 200 mg/kg): markedly higher than Meclofenoxate at 200 mg/kg; Activity on alimentary consumption and weight development (genetically obese mice [4]; genetically obese mice of 42-42.5 g, in words): active both on alimentary consumption and on weight development; Weight (genetically obese mice [4]; treated obese males, 200 mg/kg, obese male controls 43.3 ± 0.284, in g): 39.3 ± 0.882; Diuretic action (Diuretic action; 100 mg/kg): slight diuretic action; Efficacy in orientation test after electroshock (rats; 100 mg, first 2 series of electroshock): slightly effective; Toxicity compared with Meclofenoxate / overall toxicity (mice; in words): less toxic than "Meclofenoxate" |
| CN1CCCCC1COC(=O)COc1ccc(Cl)cc1 (centres unmarked) [PM 172, N-methyl-2-hydroxymethyl-piperidine 4-chloro-phenoxyacetate] | 60 s | – | – | – | – | – | – | – | – | 160 mg | 1500 mg | 2.2727 | counteract both hyperphagia and the weight gain | limit the build up of Na^+ | counteract the loss of K^+ | considerably reduce the occurrence of the oedema | Decrease in the stomach weight with respect to the aurothioglucose reference ([2]; 60 mg/kg P.O): 2.6299 |
